Source: patent US20100179158A1, “INHIBITORS OF CYCLIC AMP PHOSPHODIESTERASES” (priority 2007, published 2010)

What was measured:
Assay type in all cases: cell-based
PDE4A5 = target: T1, PDE4A5 (Rattus norvegicus, UniProt P54748); assay: Fission yeast 5FOA growth assay, strain expressing PDE4A5; details: 5FOA growth screen; for 1 Assay (20 uM), PDE 4A5: 20 uM compound; for 2 Assay (2 uM), PDE 4A5: 2 uM compound
T1 construct: targets used in the assays are full-length proteins (as opposed to simply the catalytic domain); expressed in transfected cells; host or cells: Schizosaccharomyces pombe, gene integrated at the cgs2 locus
T1 sequence (P54748 1-844): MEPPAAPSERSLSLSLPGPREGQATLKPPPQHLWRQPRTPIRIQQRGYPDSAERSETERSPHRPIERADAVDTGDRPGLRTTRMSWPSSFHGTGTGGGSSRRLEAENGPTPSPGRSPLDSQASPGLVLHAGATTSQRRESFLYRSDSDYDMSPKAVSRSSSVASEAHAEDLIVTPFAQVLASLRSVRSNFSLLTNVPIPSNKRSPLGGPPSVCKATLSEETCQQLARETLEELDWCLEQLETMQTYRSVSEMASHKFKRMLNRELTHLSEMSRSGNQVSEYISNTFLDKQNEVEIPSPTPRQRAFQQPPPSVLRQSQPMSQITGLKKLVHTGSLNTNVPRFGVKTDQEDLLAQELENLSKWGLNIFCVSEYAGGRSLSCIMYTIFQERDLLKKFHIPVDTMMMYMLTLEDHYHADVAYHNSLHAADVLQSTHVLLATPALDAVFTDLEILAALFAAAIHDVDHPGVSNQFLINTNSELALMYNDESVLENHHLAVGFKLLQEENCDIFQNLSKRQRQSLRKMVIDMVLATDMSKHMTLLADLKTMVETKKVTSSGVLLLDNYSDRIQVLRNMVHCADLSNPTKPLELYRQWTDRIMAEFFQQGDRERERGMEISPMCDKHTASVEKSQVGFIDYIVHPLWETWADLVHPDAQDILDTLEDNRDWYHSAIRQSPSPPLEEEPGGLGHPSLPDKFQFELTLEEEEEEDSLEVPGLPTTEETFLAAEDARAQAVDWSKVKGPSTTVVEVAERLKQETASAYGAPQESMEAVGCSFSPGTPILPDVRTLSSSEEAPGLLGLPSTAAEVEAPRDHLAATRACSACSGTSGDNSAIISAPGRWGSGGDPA
Method: High throughput drug screens were carried out at the Broad Institute's Chemical Biology Program screening facility (Broad Institute, Cambridge, Mass.). Depending upon the strain, cultures were pregrown to exponential phase in EMM complete medium containing from 0.5 to 2.5 mM cAMP to repress fbp1-ura4 transcription. Cells were collected by centrifugation, resuspended in 5FOA medium, and 25 μl were transferred to 384-well microtiter dishes (untreated, with flat clear bottoms) that had been pre-filled with 25 μl 5FOA medium and pre-pinned with 100 nl of compounds (stock solutions were generally 10 mM) from a subset of the Prestwick Bioactive and the Microsource Spectrum compound libraries. Starting cell concentrations ranged from 0.5×10^5 to 4×10^5 cells/ml depending on the screening strain. […] Other positive control dishes contained 5 mM cAMP in the 5FOA medium. Cultures were grown for 48 hours at 30° C., sealed in an airtight container with moist paper towels to prevent evaporation. Optical densities (OD600) of cultures were measured using a microplate reader. Bioinformatic analysis of the results to determine composite Z scores was performed as previously described^30, 31.
(§1) Cells were pregrown in EMM medium [MP Biomedicals (Solon, OH), 3% glucose, filter-sterilized to avoid carmelization, which would introduce variability into the optical density of the medium] containing from 0 mM to 2.5 mM cAMP (or either 0.5 mM or 1.0 mM cGMP). This was to repress expression of the fbp1-ura4 reporter prior to exposure of cells to 5FOA medium. Cells were grown at 30° C. to exponential phase (approximately 10^7 cells/ml). Cells were collected by centrifugation and resuspended in 5FOA medium, and 25 μl were transferred to 384-well microtiter dishes (untreated, with flat clear bottoms) that had been pre-filled with 25 μl 5FOA medium and pre-pinned with 100 nl of compounds (stock solutions were generally 10 mM). Starting cell concentrations ranged from 0.5×10^5 to 4×10^5 cells/ml depending on the screening strain. […] Other positive control dishes contained 5 mM cAMP in the 5FOA medium for PDEs that lack appropriate control compounds. Cultures were grown for 48 hours at 30° C., sealed in an airtight container with moist paper towels to prevent evaporation. Optical densities (OD600) of cultures were measured using a microplate reader. Bioinformatic analysis of the results to determine composite Z scores was performed as previously described (1, 3).

PDE7A = target: T2, PDE7A (Homo sapiens, UniProt Q13946); assay: Fission yeast 5FOA growth assay, strain expressing PDE7A; details: 5FOA growth screen; for 1 Assay (20 uM), PDE 7A: 20 uM compound; for 2 Assay (2 uM), PDE 7A: 2 uM compound
T2 construct: targets used in the assays are full-length proteins (as opposed to simply the catalytic domain); expressed in transfected cells; host or cells: Schizosaccharomyces pombe, gene integrated at the cgs2 locus
Method: as §1

[1] = tested on: PDE4A, PDE4B, PDE4D, PDE7A; assay: Overall PDE inhibitor profile from the yeast assays (table footnotes, summary)
How it was run: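 Fission yeast strains expressing full-length PDEs with an fbp1-ura4 reporter, pregrown in EMM with 0–2.5 mM cAMP (or 0.5 or 1.0 mM cGMP), then grown 48 h at 30° C in 5FOA medium with 100 nl of compound pinned per well (10 mM stocks). Growth read as OD600; composite Z scores calculated.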

PDE4D3 [2] = target: T3, PDE4D3 (Homo sapiens, UniProt Q08499); assay: Fission yeast 5FOA growth assay, strain expressing PDE4D3; details: 2 uM compound, 5FOA growth screen
T3 construct: targets used in the assays are full-length proteins (as opposed to simply the catalytic domain); expressed in transfected cells; host or cells: Schizosaccharomyces pombe, gene integrated at the cgs2 locus
Method: as §1

PDE4D3 [3] = target: T3, PDE4D3; assay: cAMP assay in yeast strain expressing PDE4D3

T2 sequence (Q13946 whole entry, the tested form may be a part): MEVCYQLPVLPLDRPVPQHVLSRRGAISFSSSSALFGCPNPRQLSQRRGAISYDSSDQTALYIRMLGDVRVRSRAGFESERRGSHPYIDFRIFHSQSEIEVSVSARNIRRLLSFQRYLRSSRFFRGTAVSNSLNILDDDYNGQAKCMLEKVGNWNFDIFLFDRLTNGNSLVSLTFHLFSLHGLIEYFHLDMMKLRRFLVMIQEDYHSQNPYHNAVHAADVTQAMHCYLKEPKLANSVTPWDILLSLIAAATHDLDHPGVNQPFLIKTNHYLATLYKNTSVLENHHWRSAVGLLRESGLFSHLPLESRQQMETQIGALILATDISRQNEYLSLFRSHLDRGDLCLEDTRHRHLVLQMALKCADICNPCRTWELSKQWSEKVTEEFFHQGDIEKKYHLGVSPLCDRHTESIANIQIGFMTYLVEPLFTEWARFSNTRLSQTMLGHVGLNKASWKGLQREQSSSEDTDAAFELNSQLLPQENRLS
T3 sequence (Q08499 1-673 isoform Q08499-2): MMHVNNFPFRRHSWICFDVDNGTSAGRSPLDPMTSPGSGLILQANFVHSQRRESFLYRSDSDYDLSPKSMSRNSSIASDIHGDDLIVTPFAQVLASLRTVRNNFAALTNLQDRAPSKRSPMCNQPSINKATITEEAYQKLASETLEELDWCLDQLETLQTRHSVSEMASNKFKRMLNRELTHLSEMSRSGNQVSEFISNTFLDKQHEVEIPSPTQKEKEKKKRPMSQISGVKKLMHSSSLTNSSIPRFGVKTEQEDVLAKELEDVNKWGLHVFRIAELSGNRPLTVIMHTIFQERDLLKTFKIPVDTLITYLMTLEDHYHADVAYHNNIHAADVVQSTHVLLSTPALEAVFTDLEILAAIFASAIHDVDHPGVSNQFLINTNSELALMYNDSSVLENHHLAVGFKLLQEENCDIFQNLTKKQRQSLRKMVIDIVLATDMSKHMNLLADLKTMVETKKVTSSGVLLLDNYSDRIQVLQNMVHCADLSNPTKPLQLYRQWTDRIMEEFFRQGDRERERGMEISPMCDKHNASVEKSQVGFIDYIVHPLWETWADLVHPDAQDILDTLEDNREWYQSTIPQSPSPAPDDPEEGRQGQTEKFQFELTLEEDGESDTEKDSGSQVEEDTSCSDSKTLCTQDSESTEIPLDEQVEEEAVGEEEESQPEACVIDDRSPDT

| Compound | 1 Assay (20 uM), PDE 4A5 (PDE4A5) | 1 Assay (20 uM), PDE 7A (PDE7A) | PDE inhibitor profile in words (table footnote / summary) [1] | 2 Assay (2 uM), PDE 4A5 (PDE4A5) | 2 Assay (2 uM), PDE 4D3 (PDE4D3 [2]) | 2 Assay (2 uM), PDE 7A (PDE7A) | cAMP Response (% rolipram), PDE 4D3 (PDE4D3 [3]) [% rolipram] |
| --- | --- | --- | --- | --- | --- | --- | --- |
| Cc1ccc2c(c1)c1nc3ccccc3nc1n2C(C)C [Compound 41] | 84.08 | 0.31 |  |  |  |  |  |
| COC(=O)C1=C(C)N(c2ccccc2F)C(=O)/C1=C\c1cccc(OC)c1O [2008, C21] | 1.80 ND ND ND ND | −0.08 ND ND ND ND | (2) Strong PDE4A, 4B inhibitor |  |  |  |  |
| COC(=O)C1=C(C)N(c2ccccc2)/C(=C/c2cccs2)C1=O [2008, K19] | −0.06 ND ND ND ND | 2.43 ND ND ND ND | (1) No activity under conditions used |  |  |  |  |
| COC(=O)C1=C(C)N(C2CCCCC2)C(=O)/C1=C\c1cccs1 [Compound 22] | −0.06 | 132.82 | (4) Strong PDE4A, 4B, 7 inhibitor; Weak PDE4D inhibitor | 13.66 | 42.32 | 57.22 | 12.00 |
| COC(=O)C1=C(C)N(c2ccc(C(C)C)cc2)C(=O)/C1=C\c1cccs1 [2008, O19] | 1.73 ND ND ND ND | 2.78 ND ND ND ND | (1) No activity under conditions used |  |  |  |  |
| COC(=O)C1=C(C)N(c2ccccc2Cl)C(=O)/C1=C\c1cccs1 [Compound 27] | 65.67 | 2.34 | (3) Strong PDE4A, 4B inhibitor | 12.63 | 0.00 | 5.07 | 8.00 |
